For assay [1], the target named is T1, IDE (Homo sapiens, UniProt P14735).
T1 construct: made in house; host or cells: bacteria
T1 sequence (P14735 1-1019): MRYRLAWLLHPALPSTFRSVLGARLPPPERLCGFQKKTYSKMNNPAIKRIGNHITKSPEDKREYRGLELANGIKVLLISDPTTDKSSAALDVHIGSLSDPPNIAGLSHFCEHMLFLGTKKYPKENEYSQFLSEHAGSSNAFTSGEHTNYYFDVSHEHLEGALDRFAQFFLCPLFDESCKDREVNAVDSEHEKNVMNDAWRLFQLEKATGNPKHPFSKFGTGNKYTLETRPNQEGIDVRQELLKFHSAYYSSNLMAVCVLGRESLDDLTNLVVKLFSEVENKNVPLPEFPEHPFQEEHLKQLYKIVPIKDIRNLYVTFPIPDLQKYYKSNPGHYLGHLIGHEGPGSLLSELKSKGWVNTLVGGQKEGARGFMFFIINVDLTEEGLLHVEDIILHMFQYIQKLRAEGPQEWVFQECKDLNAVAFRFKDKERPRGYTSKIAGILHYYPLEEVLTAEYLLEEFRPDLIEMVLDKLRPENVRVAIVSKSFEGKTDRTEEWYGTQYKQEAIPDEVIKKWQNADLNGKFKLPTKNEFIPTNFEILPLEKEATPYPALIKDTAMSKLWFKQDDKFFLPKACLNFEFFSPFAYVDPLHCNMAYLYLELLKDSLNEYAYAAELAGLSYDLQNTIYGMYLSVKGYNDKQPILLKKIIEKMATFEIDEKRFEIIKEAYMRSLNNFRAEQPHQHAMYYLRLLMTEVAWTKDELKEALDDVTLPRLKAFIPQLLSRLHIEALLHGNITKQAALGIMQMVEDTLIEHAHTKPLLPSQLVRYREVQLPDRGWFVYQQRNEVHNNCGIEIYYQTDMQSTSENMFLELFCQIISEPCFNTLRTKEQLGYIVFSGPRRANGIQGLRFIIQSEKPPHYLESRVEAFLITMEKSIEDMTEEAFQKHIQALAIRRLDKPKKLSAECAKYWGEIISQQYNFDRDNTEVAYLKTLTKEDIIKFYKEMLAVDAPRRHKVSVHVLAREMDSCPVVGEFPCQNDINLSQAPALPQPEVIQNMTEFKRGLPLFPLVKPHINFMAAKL
In words: biochemical. To be noted: for IC50: from initial test at 10 uM using insulin (100 nM), read-out: IC50 (summary of results, listed in Table 1); for Ki: substrate recombinant human insulin 50 nM, Ki from IC50 with the Cheng-Prusoff equation. The text has this:
The six selected peptide sequences (C7C-1, C7C-2, 12–1, 12–2, 12–3 and 12–4) were synthesized, together with a variety of modifications, yielding a total of 25 peptides (Table 1). For the 12-mer peptides, we synthesized variants of the parent peptides truncated at one or both termini, to test whether the entire sequence was necessary or not, in the hope that shorter, and thus less expensive, sequences might be effective. Other modifications included N-terminal acetylation and C-terminal amidation, included to mimic the charge state of the peptides when incorporated in the phage coat protein (Table 1). To assess the extent to which these peptide sequences inhibit IDE, we quantified their potency in protease activity assays using recombinant human IDE and two different substrates: FRET1, a fluorogenic peptide, and recombinant human insulin.
(§1) IDE activity was quantified by monitoring the degradation of Mca-[…](Dnp) (FRET1, 5 μM), fluoresceinated and biotinylated amyloid ß-protein (FAßB; 500 nM) or recombinant human insulin (50 nM) in PBS supplemented with 0.05% BSA. FRET1 degradation was measured by changes in fluorescence (λex = 340 nm, λem = 420 nm); FAßB degradation was monitored by fluorescence polarization (λex = 488 nm, λem = 525 nm), as described; and insulin degradation was quantified by ELISA. In vitro activity assays incorporated recombinant human IDE (1 nM) purified from bacteria. For quantitation of insulin degradation in primary murine skin fibroblasts, cells (1 x 10^5/well) were plated in 96-well plates and maintained in DMEM supplemented with 10% fetal bovine serum (FBS), 2mM glutamine, penicillin and streptomycin. After addition of insulin (10 nM or 100 nM), samples of conditioned medium were removed daily and quickly frozen, then insulin levels were quantified in parallel by ELISA according to manufacturer’s recommendations (Crystal Chem, Downers Grove, IL, USA). Assessment of the activity of P12-3A against a variety of matrix-metalloproteases was conducted using the Matrix Metalloproteinase (MMP) Inhibitor Profiling Kit, Fluorometric RED (Enzo Life Sciences, Inc., Farmingdale, NY, USA) according to manufacturer’s recommendations using the broad-spectrum MMP inhibitor, NNGH, as a positive control.

Assay [2] concerns the target T1, IDE. In words: biochemical. As to conditions: for IC50 <500 uM?: initial test at 500 uM; for IC50: FRET1, listed in Table 1, read-out: IC50, summary of results of the initial test; for Ki: substrate FRET1 5 μM, Ki from IC50 with the Cheng-Prusoff equation, read-out: Ki FRET1. As for the experimental part: The six selected peptide sequences (C7C-1, C7C-2, 12–1, 12–2, 12–3 and 12–4) were synthesized, together with a variety of modifications, yielding a total of 25 peptides (Table 1). […] Other modifications included N-terminal acetylation and C-terminal amidation, included to mimic the charge state of the peptides when incorporated in the phage coat protein (Table 1).
as §1, with “FRET1 degradation was measured by changes in fluorescence (λex = 340 nm, λem = 420 nm); FAßB degradation was monitored by fluorescence polarization (λex = 488 nm, λem = 525 nm), as described; and insulin degradation was quantified by ELISA.” left out

Setting [3] is: judged as IC50 <100 uM?, individual replicates, read-out: Percent activity at 500 uM, Replicate 1-4.
Where [4] appears, read: initial test, percent of initial velocity relative to DMSO-only controls, individual replicates, read-out: Percent activity at 500 uM, Replicate 1-4.

Where two headings read alike, the source gives them in different places. Bridge positions count the residues as written; N and C are the ends. Ends that are not written are not given here. Peptide text beside a SMILES is read from it.

Turning to `CC[C@H](C)[C@@H]1NC(=O)[C@H](CO)NC(=O)[C@H](Cc2c[nH]c3ccccc23)NC(=O)[C@H](Cc2c[nH]c3ccccc23)NC(=O)[C@H](CO)NC(=O)[C@@H](NC(=O)[C@H](C)N)CSSC[C@@H](C(=O)NCC(=O)O)NC(=O)[C@H](CC(C)C)NC(=O)[C@H](Cc2c[nH]cn2)NC1=O` [C7C-1] (H-ACSWWSIHLCG-OH; disulfide 2-10 (inferred)), on IDE [1] (initial test at 10 uM using insulin (100 nM)), the “IC50 <10 uM?” value is “YES”. Moreover, at IDE [1] (insulin ELISA, Cmpd 0.016 uM, Runs 1-3, read-out: Percent Activity (normalized source data)), the remaining activity at 0.016 µM was determined as 75%. Moreover, on IDE [1] (insulin ELISA, Cmpd 0.08 uM, Runs 1-3, read-out: Percent Activity (normalized source data)), the remaining activity at 0.08 µM came out at 93.7%. Also, the remaining activity at 0.4 µM at IDE [1] (insulin ELISA, Cmpd 0.4 uM, Runs 1-3, read-out: Percent Activity (normalized source data)) came to 66.1%. In addition, at IDE [1] (insulin ELISA, Cmpd 2 uM, Runs 1-3, read-out: Percent Activity (normalized source data)), the remaining activity at 2 µM turned out to be 73.9%. Besides, the remaining activity at 10 µM at IDE [1] (insulin ELISA, Cmpd 10 uM, Runs 1-3, read-out: Percent Activity (normalized source data)) came out at 51.8%. At IDE [2], the “IC50 <500 uM?” value was “YES”. Moreover, the remaining activity at 500 µM turned out to be 11.4% on IDE [2] (initial test, percent of initial velocity relative to DMSO-only controls, N 4, read-out: Percent activity at 500 uM, Mean); 44.2% at IDE [2] (judged as IC50 <100 uM?, N 4, read-out: Percent activity at 500 uM, Mean); 52% on IDE [2] (setting [3]).

Consider Ac-FPMPSRPH-NH2 [P12-2D], for which, on IDE [1], the IC50 was more than 10 µM and the inhibition constant (Ki) was more than 10 µM. In addition, at IDE [2], the IC50 is more than 500 µM and the Ki was more than 500 µM. The remaining activity at 500 µM on IDE [2] (setting [3]) came to 88.8%.

For Ac-MPSRPHSS [P12-2C], the IC50 at IDE [1] was more than 10 µM; on IDE [2], more than 500 µM. Further, the Ki is more than 10 µM on IDE [1] and more than 500 µM at IDE [2]. Moreover, at IDE [2] (setting [3]), the remaining activity at 500 µM turned out to be 72.7%.

Take Ac-PISGKFFQ-NH2 [P12-4D]: the IC50 was more than 10 µM on IDE [1] and more than 500 µM on IDE [2]. Further, the Ki at IDE [1] was not below 10 µM; at IDE [2], not below 500 µM. In addition, the figures for the remaining activity at 500 µM at IDE [2] (setting [4]) and at IDE [2] (setting [3]) were 74.3% and 91.1%, respectively.

As to Ac-SGKFFQRF [P12-4C], the IC50 is more than 10 µM on IDE [1] and more than 500 µM on IDE [2]. The Ki on IDE [1] is not below 10 µM; on IDE [2], not below 500 µM. Also, the remaining activity at 500 µM on IDE [2] (setting [4]) was determined as 59.7%; on IDE [2] (setting [3]) it was 77.6%.

In the case of LNFPMPSR-NH2 [P12-2B], at IDE [1], the IC50 was more than 10 µM and the Ki was more than 10 µM. For the same compound, on IDE [2], the IC50 was more than 500 µM and the Ki is more than 500 µM. The remaining activity at 500 µM at IDE [2] (setting [4]) is 81.3%.

With LNFPMPSRPHSS [P12-2], at IDE [1], the IC50 was more than 10 µM and the Ki was more than 10 µM. In addition, at IDE [2], the IC50 is more than 100 µM, the “IC50 <500 uM?” value was “YES” and the Ki is more than 100 µM. Further, on IDE [2] (setting [3]), the remaining activity at 500 µM was determined as 59.9%.

With LNFPMPSRPHSS-NH2 [P12-2A], at IDE [1], the IC50 was more than 10 µM and the Ki is more than 10 µM. For the same compound, on IDE [2], the IC50 is more than 100 µM, the “IC50 <500 uM?” value is reported as “YES” and the Ki was more than 100 µM. The remaining activity at 500 µM at IDE [2] (setting [4]) was found to be 31.8%. At IDE [2] (setting [3]), the remaining activity at 500 µM stood at 58.5%.

Turning to WSPISGKF-NH2 [P12-4B], the IC50 at IDE [1] was more than 10 µM; at IDE [2], more than 500 µM. For the same compound, the inhibition constant Ki at IDE [1] was not below 10 µM; on IDE [2], not below 500 µM. For the same compound, the results for the remaining activity at 500 µM on IDE [2] (setting [4]) and at IDE [2] (setting [3]) were 76.6% and 86.6%, respectively.

The values above are taken from paper PMC5814047, “Peptidic inhibitors of insulin-degrading enzyme with potential for dermatological applications discovered via phage display” (PLoS ONE, 2018).
